In patent publication US20200338156A1, “C[…] (CYCLO-HIS PRO) FOR PREVENTING, IMPROVING OR TREATING OF BONE LOSS RELATED DISEASE” (NovMetaPharma Co., Ltd., priority 2017, published 2020):
Entries after “also recorded” stand apart in the source; their conditions may differ.

Legend:
[1] = tested on: ovariectomized animal model; assay: Osteoporosis alleviation effect in ovariectomized animal model, micro CT of femur; type: in vivo, SD female mice
Procedure: To determine the effect of alleviating osteoporosis in an ovariectomized animal model according to administration of CHP, a zinc salt, or a mixture thereof, 20-week-old SD female mice (SLC/Central Experimental Animal Co. Ltd., Seoul, Korea) were purchased and raised under certain conditions (temperature: 22±2° C., relative humidity: 55±10%, light/dark cycle: 12 hours). 7 mice/group were allowed to freely drink water and eat food in a cage, subjected to an adaptation period of 1 week before the experiment, and used in the experiment.
After 6 weeks of the administration of CHP, a zinc salt, or a mixture thereof, the effect of alleviating osteoporosis in an ovariectomized animal model was analyzed using Micro CT. The bone mineral density of ovariectomized animals was measured by bone CT scanning of the 3 mm range at the front side of a 2 mm femoral growth plate using micro-CT (QuantumFX, Perkin Elmer, Massachusetts, USA). In addition, a bone volume fraction (BV/TV, %) was measured. The measurement results of the bone mineral density of the femur are illustrated in FIG. 1, and the bone volume fraction is illustrated in FIG. 2.

MC3T3-E1 cells = assay: Osteogenic differentiation of MC3T3-E1 osteoblasts, alkaline phosphatase (ALP) activity; type: cell-based
Procedure: MC3T3-E1 cells were incubated in MEMα, an ascorbic acid-free medium containing 10% FBS and 1% penicillin/streptomycin, in a 5% CO2 incubator at 37° C. To induce osteogenic differentiation, 10 mM β-glycerophosphate and […] of ascorbic acid was further added to the basal medium composition.
500 μl of 1×10^5 MC3T3-E1 cells were seeded into a 24-well plate and cultured for 24 hours until they reached 100% confluency. […] At this time, in the undifferentiated group, which is a negative control for differentiation, a basal medium was used instead of the differentiation medium. In the positive control treated with hPTH1-34, the medium was replaced with a differentiation medium 6 hours after the treatment. While the medium was replaced every 48 hours, each concentration of CHP and hPTH1-34 was treated for a total of 14 days.
On day 14 of differentiation, the medium was removed, followed by washing once with PBS and fixing in 4% paraformaldehyde (PFA) at room temperature for 5 minutes. 500 μl of a 1-STEP™ NBCT/BCIP solution was added to allow a reaction to occur at room temperature for 1 hour. The reaction product was washed with distilled water, and then dried at room temperature, and the degree of coloring of the cells was observed using a microscope. Subsequently, DMSO was added to each well, followed by shaking, and then absorbance at 525 nm was measured.

O=C1N[C@@H](Cc2cnc[nH]2)C(=O)N2CCC[C@@H]12 [CHP, cyclo-hispro]
bone mineral density of a femur ([1]; CHP alone administered to ovariectomized animal model, dose not stated (FIG. 1)): significantly increased | bone volume fraction of a femur ([1]; CHP alone administered to ovariectomized animal model, dose not stated (FIG. 2)): significantly increased | bone volume fraction (BV/TV) ([1]; group administered 1 mg/L of CHP in drinking water, 6 weeks, micro-CT): restored to a level similar to that of the positive control (risedronate) | bone mineral density of the femur ([1]; group administered 1 mg/L of CHP in drinking water, 6 weeks, micro-CT, compared to the ovariectomized group): significant increase | effect on bone mineral density and bone volume fraction versus zinc salt-administered group and combined (zinc salt + CHP) administration group ([1]; ovariectomized animal model, CHP alone): significantly stronger | osteogenic differentiation, degree of coloring (ALP staining, FIG. 3) (MC3T3-E1 cells; MC3T3-E1, 0.5, 1 or 2 mM CHP, day 14 of differentiation, compared to negative control): remarkably increased degree of coloring compared to the negative control; also recorded: as the concentration of CHP treated was increased, osteogenic differentiation and bone modeling were promoted | ALP activity (absorbance at 525 nm, FIG. 4) (MC3T3-E1 cells; MC3T3-E1, CHP 2 mM, day 14, compared to positive control hPTH1-34 10 nM): level similar to that of the positive control; also recorded: same or similar to that of a positive control
